This is an account of results in the METLIN SMRT retention time set (Domingo-Almenara et al. 2019).

Structures are written as SMILES.

A short description of this data set: gradient 5% acetonitrile 3 min, to 50% in 2 min, to 85% in 15 min, held 3 min, 100 µL/min. As to conditions: column: Zorbax Extend-C18 2.1 x 50 mm; eluents: water / acetonitrile, 0.1% formic acid. The method, boiled down:
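Data were gathered over 3 months by HPLC coupled to a quadrupole time-of-flight mass spectrometer, operated in positive and negative ionization mode. Mixtures of ~100 pure standards ran on a Zorbax Extend-C18 column (2.1 × 50 mm, 1.8 μm) at 100 μL/min, with water and acetonitrile each containing 0.1% formic acid and dead and dwell volumes of 40 μL and 900 μL. Retention time was read from adduct peaks picked by computer and checked manually.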
On to `O=S(=O)(c1ccc2nc(N3CCN(c4ccccc4)CC3)ccc2c1)N1CCCCC1`, for which the RP-LC retention time was determined as 1030 s.
The result for `CCn1ccc2cc(S(=O)(=O)N3CCCC(C(=O)N4CCN(C)CC4)C3)ccc21` (configuration not stated) reads 646 s.
In the case of `O=C(NCc1cccc(F)c1)c1cn2c(n1)CCCC2` it was 584 s; in that of `Cn1cc(C(=O)C(=O)N[C@H]2CN3CCC2CC3)c2ccccc21`, 672 s.
The result for `O=C1CN(S(=O)(=O)c2cccc3cccnc23)C2(CCCC2)CN1` reads 685 s; that for `CCOC(=O)c1ncn2c1[C@@H]1CCCN1C(=O)c1cc(OC)ccc1-2`, 758 s.
`CCCCCCNC(=O)C1CCCN(c2ncc(-c3ccccc3)cn2)C1` (configuration not stated) registered an RP-LC retention time of 1150 s.
In turn, `CCn1c(CN(C)C(=O)Nc2ccc(Br)cc2F)nc2cc(C(=O)N(C)C)ccc21` showed an RP-LC retention time of 650 s.
The result for `COc1ccc(CN2N=C(C(=O)N3CCCC3)S(=O)(=O)c3ccccc32)cc1` reads 823 s; that for `Cn1cccc1C(CNS(=O)(=O)c1ccc(F)c(Cl)c1)N1CCOCC1` (configuration not stated), 575 s.
The result for `O=C(NCc1ccc(F)cc1)C1CCCN(S(=O)(=O)c2c[nH]c(C(=O)N3CCCCCC3)c2)C1` (configuration not stated) reads 838 s; that for `COC(=O)c1ccc(NC(=O)C(=O)NCCOc2ccc(F)cc2)cc1`, 870 s; that for `CCOC(=O)N1CCc2nc(NC(=O)c3ccc([N+](=O)[O-])s3)sc2C1`, 792 s.
The result for `O=S(=O)(c1ccc(-c2noc(-c3ccccc3Cl)n2)cc1)N1CCCC1` reads 1200 s; that for `CCOC(=O)c1[nH]c(C)c(CCC(=O)N2CCC(C(=O)NCc3ccc(OC(C)C)cc3)CC2)c1C`, 850 s; that for `CCN1CCN(c2nc(F)c3c(c2F)S(=O)(=O)CCN3Cc2ccccc2)CC1`, 682 s.
For `Cc1nn(-c2ccc(-c3noc(C4CC4)n3)cc2)cc1C(=O)Nc1ccc(F)cc1F`, the RP-LC retention time was determined as 773 s.
The result for `CC1(C(=O)NCc2ccc(F)cc2)CCCN(C(=O)NCCc2ccccc2)C1` (configuration not stated) reads 857 s.
`CN(CC(=O)Nc1ccc(F)c(F)c1F)c1nc2c(Cl)cccc2s1` showed an RP-LC retention time of 1000 s.
In turn, `COc1ccc(NC(=O)c2c(OC)cc(=O)n3c2CCCC3)cc1OC` yielded an RP-LC retention time of 628 s.
The result for `CN(C)C[C@@H]1CN(S(C)(=O)=O)C[C@H]1NC(=O)c1cccn1C` reads 573 s; that for `Fc1ccc(Cc2nc(-c3ccn4cnnc4c3)no2)cc1`, 764 s; that for `CC1CCCCN1Cc1nc(Cn2ccn3nc(-c4ccccc4)cc3c2=O)no1` (configuration not stated), 658 s.
In turn, `Cc1nc(-c2cnccn2)nc2c1CCC(=O)N2Cc1ccc(F)cc1` registered an RP-LC retention time of 732 s.
In the case of `Cc1[nH]c(C(=O)N2CCC(CC(=O)NCc3cccnc3)CC2)c(C)c1C(=O)OC(C)C` it was 597 s; in that of `O=C(Nc1ccc(Cl)cc1F)NC1CCN(c2cc(N3CCOCC3)cnn2)C1` (configuration not stated), 649 s; in that of `c1cn(Cc2nc(-c3ccc4c(c3)OCO4)no2)cn1`, 605 s.
In the case of `COc1ccc(-c2nc(C3CC(=O)N(Cc4ccccc4)C3)no2)cc1` (configuration not stated) it was 946 s.
In the case of `Cc1ccc(CCC(=O)Nc2nc(-c3ccc4c(c3)N(C)C(=O)C(C)O4)cs2)cc1` (configuration not stated) it was 1070 s; in that of `CN[C@@H](C)C(=O)N[C@H]1CN(C(=O)CC(C)C)CC[C@H]2CC[C@@H](C(=O)NC(c3ccccc3)c3ccccc3)N2C1=O`, 757 s; in that of `CC(C)c1ccc(NC(=O)C2CCCN(c3nc4ccccc4nc3C(F)(F)F)C2)cc1` (configuration not stated), 957 s.
Take `O=C(Nc1cccc(C(F)(F)F)c1)N1CCC(N2C[C@H]3C[C@H](C2)[C@H]2CCCC(=O)N2C3)CC1`: the RP-LC retention time came out at 653 s.
